Measurements reported in patent US12516058B2, “Small-molecule compounds for controlling endosomal toll-like receptors and therapeutic agent for autoimmune diseases using same” (priority 2020, dated 2026).
“Also recorded” adds a separate entry of the source.

Molecular target: T1, TLR9 (Mus musculus, UniProt Q9EQU3)
T1 construct: endogenous in cells; host or cells: RAW 264.7
T1 sequence (Q9EQU3 26-1032): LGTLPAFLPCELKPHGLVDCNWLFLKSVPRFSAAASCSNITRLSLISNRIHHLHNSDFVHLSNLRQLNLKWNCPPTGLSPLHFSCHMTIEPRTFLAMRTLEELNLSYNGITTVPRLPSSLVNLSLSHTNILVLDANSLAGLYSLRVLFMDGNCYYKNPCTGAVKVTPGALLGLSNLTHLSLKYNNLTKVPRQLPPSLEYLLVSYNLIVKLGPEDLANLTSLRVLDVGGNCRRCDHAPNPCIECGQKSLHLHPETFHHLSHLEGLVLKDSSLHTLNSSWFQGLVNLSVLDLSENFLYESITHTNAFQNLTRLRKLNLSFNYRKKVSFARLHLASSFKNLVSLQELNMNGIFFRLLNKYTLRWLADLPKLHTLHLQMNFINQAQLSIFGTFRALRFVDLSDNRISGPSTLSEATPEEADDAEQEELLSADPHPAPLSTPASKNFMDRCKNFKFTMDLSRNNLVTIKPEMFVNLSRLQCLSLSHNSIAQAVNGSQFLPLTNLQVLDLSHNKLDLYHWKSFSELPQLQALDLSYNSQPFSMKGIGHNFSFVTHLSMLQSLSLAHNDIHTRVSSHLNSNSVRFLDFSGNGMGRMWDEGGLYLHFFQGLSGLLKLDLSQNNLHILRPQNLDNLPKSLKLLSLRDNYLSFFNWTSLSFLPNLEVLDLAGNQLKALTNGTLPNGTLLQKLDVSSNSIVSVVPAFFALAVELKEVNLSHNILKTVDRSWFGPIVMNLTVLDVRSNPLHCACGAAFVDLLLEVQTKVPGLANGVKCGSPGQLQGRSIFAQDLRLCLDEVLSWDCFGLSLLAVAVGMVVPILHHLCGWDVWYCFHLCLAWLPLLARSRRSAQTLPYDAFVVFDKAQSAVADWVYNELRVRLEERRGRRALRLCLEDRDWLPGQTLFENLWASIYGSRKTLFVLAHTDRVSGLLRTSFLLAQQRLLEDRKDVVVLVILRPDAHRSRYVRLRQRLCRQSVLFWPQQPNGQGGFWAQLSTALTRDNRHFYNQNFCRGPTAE
Assay: TNF-α secretion ELISA after TLR9 agonist ODN2395 in RAW 264.7 cells
Type: cell-based
Details: for inhibitory activity against TLR9 activation (TNF-α secretion): SK01 and structural derivatives, inhibitor 1 h, then ODN2395 4 h; for inhibitory activity against TLR9 (level of TNF-α secretion): SK21 to SK82 at 0.5 μM or 2 μM, ODN2395 0.5 μM
Procedure: In order to determine the inhibitory activities of the test-ligand, RAW 264.7 cells were pretreated with each candidate compound for 1 hour, then treated with Pam3CSK4 (synthetic triacyl lipopeptide; TLR1/2, Invitrogen), FSL-1 (synthetic diacyl lipoprotein, TLR2/6, 100 ng/ml), lipopolysaccharide (LPS, TLR4, Sigma Aldrich), imiquimod (IMQ, TLR7, Invitrogen), and ODN2395 (type C CpG repeat motif DNA oligo(5′-[…]-3), TLR9, Bioneer) ligand for 4 hours, and treated with poly I:C (I:C repeat motif double-stranded RNA, TLR3, Invitrogen) and TL8-506 (TLR8, Invitrogen) showing delayed reactivity for 24 hours. After activation of TLR, the supernatant was diluted in an appropriate ratio so as to measure within the standard dose range, transferred to a pre-coated 96-well assay plate, and then treated with mouse TNF-alpha secretion level in accordance with the manufacturer's instructions using a mouse-TNF-alpha ELISA-kit (Invitrogen).
In order to plot the concentration-dependent LC50 curves, treatment with the SK series ligands at different concentrations up to 200 μM (the highest concentration that could be treated within the level of 0.5% DMSO) was performed. Then, cell viability and toxicity response upon treatment with ligands were analyzed by MTT as described in Examples 1-3. Cell viability in each plot was normalized from negative control (100%; no treatment) to positive control (highest concentration of test-ligand), and LC50 was determined by non-linear regression (Graph Pad Prism 7.0). In order to plot the concentration-dependent IC50 curves, pre-treatment with the SK series ligands was performed at different concentrations up to 50 μM (twice the initial concentration). Cell responses mediated by TLR7 and TLR9 (levels of TNF-α secretion) were analyzed by ELISA as described in Examples 1-4. The cytokine level in each plot was normalized from negative control (non-treated) to positive control (treatment with ligand), and IC50 was determined by non-linear regression (Graph Pad Prism 7.0).
In order to select potential inhibitory molecules against TLR3/TLR7/TLR8/TLR9 activation, first, MTT (3-(4,5-dimethylthiazol-2-yl)-2,5-diphenyltetrazolium bromide) cell viability assay (FIG. 7) was performed upon treatment with a set of ligands from SK21 to SK82 at a concentration of 20 μM and the inhibitory activity thereof was evaluated by an ELISA assay to monitor the level of TNF-α secretion in RAW 264.7 cells. The experimental ligands from SK21 to SK82 were administered at 0.5 μM or 2 μM to the RAW 264.7 cells and stimulated with Imiquimod (TLR7, 1 μg/ml) and OND2395 (TLR9, 0.5 μM).

Row | SMILES | inhibitory activity against TLR9 activation (TNF-α secretion) | inhibitory activity against TLR9 (level of TNF-α secretion)
1 | Cc1c(C)n(CCN(C)C)c2nc3c(c(N)c12)CCCCC3 [SK01, 1-(2-(dimethylamino)ethyl)-2,3-dimethyl-1,5,6,7,8,9-hexahydrocyclohepta[b]pyrrolo[3,2-e]pyridin-4-amine] | inhibitory ability for TLR7/TLR9 activation was verified; also recorded: specifically inhibit | 
2 | Cc1c(C)n(CCCN(C)C)c2nc3c(c(N)c12)CCCCC3 [SK16, 1-(3-(dimethylamino)propyl)-2,3-dimethyl-1,5,6,7,8,9-hexahydrocyclohepta[b]pyrrolo[3,2-e]pyridin-4-amine] | potent inhibitor; also recorded: best inhibitory activity among the structural analogues of SK01; also recorded: specifically inhibit | 
3 | Cc1cc2c(N)c3c(nc2n1CCCN(C)C)CCCCCC3 [SK41, 1-(3-(dimethylamino)propyl)-2-methyl-5,6,7,8,9,10-hexahydro-1H-cycloocta[b]pyrrolo[3,2-e]pyridin-4-amine] |  | significant inhibitory activity; also recorded: significantly reduced
4 | COc1ccc2c(c1)c1c(N)c3c(nc1n2CCCN(C)C)CCCC3 [SK50, 6-(3-(dimethylamino)propyl)-9-methoxy-2,3,4,6-tetrahydro-1H-indolo[2,3-b]quinolin-11-amine] |  | significant inhibitory activity; also recorded: significantly reduced
5 | Cc1ccc2c(c1)c1c(N)c3c(nc1n2CCCN(C)C)CCCC3 [SK58, 6-(3-(dimethylamino)propyl)-9-methyl-2,3,4,6-tetrahydro-1H-indolo[2,3-b]quinolin-11-amine] |  | significant inhibitory activity; also recorded: significantly reduced
6 | COC(=O)c1ccc2c(c1)c1c(N)c3c(nc1n2CCCN(C)C)CCCC3 [SK64, Methyl 11-amino-6-(3-(dimethylamino)propyl)-2,3,4,6-tetrahydro-1H-indolo[2,3-b]quinolin-9-carboxylate] |  | significant inhibitory activity; also recorded: significantly reduced
